Test results reported in ChEMBL document CHEMBL1201862, “PubChem BioAssay data set” (2004).
Each block holds one compound with its values, some of them ahead of it. Calls of active or inactive are those of the source.

Assays:
[1] = biological target: Glycogen synthase kinase-3 alpha (Homo sapiens, UniProt P49840); test: Inhibition of Human GSK-3 alpha Activity Measured in Biochemical System Using Microfluidics - 2063-06_Inhibitor_Dose_DryPowder_Activity_Set2. [Related pubchem assays (depositor defined):AID2709]
[2] = biological target: T1, Glycogen synthase kinase-3 beta (Homo sapiens, UniProt P49841); test: Inhibition of Human GSK-3 beta Activity Measured in Biochemical System Using Microfluidics - 2063-05_Inhibitor_Dose_DryPowder_Activity_Set2. [Related pubchem assays (depositor defined):AID2709]
T1 sequence (P49841 whole entry): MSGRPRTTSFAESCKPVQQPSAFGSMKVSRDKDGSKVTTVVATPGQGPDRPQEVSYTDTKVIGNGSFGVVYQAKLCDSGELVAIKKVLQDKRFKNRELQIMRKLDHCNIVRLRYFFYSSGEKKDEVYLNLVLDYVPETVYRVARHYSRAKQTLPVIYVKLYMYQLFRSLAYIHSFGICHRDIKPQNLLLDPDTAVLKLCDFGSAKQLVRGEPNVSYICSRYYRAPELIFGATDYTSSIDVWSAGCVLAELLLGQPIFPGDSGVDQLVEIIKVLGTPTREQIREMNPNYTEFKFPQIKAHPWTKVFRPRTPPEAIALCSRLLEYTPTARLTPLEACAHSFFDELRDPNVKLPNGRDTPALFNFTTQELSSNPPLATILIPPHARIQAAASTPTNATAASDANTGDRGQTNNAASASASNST

[3] = biological target: Homeodomain-interacting protein kinase 2 (Homo sapiens, UniProt Q9H2X6); assay type: functional;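 note: measured within a kinome-wide kinase profiling panel, HIPK2 being one panel member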
Homeodomain-interacting protein kinase 2, sequence (Q9H2X6 whole entry): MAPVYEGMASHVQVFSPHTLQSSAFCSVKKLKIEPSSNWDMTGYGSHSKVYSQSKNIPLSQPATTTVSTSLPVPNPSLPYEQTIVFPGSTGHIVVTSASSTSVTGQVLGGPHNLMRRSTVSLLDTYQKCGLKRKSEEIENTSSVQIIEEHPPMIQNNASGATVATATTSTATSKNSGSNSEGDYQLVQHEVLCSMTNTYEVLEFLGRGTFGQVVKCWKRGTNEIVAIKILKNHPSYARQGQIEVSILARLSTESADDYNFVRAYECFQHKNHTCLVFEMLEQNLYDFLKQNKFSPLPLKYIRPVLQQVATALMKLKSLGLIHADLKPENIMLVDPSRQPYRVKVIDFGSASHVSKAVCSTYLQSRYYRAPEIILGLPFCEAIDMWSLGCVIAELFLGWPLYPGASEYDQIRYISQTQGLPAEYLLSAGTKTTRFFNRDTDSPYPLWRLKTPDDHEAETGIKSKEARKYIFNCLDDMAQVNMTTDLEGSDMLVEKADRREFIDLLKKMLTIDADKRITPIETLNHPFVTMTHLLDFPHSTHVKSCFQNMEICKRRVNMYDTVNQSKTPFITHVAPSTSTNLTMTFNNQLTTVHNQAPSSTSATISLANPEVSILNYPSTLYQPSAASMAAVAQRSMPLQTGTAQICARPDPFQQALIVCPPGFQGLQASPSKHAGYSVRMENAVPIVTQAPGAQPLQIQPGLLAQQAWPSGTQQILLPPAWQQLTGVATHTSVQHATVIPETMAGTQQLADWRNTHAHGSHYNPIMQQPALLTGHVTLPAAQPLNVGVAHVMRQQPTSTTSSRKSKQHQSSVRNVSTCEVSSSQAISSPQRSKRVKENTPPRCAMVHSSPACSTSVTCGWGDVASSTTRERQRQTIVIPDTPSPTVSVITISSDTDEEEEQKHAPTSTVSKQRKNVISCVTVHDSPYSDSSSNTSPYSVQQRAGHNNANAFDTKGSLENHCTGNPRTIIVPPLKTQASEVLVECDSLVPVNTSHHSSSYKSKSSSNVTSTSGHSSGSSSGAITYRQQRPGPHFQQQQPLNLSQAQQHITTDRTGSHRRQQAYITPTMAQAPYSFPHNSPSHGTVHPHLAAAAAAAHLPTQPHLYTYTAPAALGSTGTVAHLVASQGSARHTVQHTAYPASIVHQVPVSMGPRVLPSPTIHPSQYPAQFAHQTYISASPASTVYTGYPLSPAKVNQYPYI

[4] = biological target: Dual specificity protein kinase CLK4 (Homo sapiens, UniProt Q9HAZ1); assay type: functional
Dual specificity protein kinase CLK4, sequence (Q9HAZ1 whole entry): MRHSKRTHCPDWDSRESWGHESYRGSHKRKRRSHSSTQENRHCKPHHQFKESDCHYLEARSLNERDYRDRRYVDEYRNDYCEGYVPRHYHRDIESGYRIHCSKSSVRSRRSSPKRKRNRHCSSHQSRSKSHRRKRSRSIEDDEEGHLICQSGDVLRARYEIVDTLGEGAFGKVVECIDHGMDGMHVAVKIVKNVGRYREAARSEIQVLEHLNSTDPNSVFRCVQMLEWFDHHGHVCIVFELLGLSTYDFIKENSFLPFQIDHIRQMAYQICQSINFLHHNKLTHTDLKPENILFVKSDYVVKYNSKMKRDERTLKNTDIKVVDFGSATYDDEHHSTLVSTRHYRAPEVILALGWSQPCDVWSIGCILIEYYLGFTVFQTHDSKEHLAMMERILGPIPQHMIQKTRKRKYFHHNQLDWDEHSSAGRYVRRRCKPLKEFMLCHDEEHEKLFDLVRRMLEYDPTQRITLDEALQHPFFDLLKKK

[5] = biological target: T1, Glycogen synthase kinase-3 beta; assay type: functional
[6] = biological target: Interleukin-1 receptor-associated kinase 4 (Homo sapiens, UniProt Q9NWZ3); assay type: functional
[7] = biological target: Serine/threonine-protein kinase pim-1 (Homo sapiens, UniProt P11309); assay type: functional
Serine/threonine-protein kinase pim-1, sequence (P11309 whole entry): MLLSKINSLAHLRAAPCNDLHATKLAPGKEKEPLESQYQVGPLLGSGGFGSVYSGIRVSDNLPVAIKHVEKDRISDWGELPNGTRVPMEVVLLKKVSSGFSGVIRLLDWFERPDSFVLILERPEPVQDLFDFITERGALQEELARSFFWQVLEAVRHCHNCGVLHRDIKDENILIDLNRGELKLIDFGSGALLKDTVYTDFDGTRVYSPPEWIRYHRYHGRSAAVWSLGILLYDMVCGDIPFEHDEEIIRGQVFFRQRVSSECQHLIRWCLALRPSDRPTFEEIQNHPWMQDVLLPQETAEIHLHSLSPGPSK

[8] = biological target: Mitogen-activated protein kinase kinase kinase kinase 4 (Homo sapiens, UniProt O95819); assay type: functional
Mitogen-activated protein kinase kinase kinase kinase 4, sequence (O95819 whole entry): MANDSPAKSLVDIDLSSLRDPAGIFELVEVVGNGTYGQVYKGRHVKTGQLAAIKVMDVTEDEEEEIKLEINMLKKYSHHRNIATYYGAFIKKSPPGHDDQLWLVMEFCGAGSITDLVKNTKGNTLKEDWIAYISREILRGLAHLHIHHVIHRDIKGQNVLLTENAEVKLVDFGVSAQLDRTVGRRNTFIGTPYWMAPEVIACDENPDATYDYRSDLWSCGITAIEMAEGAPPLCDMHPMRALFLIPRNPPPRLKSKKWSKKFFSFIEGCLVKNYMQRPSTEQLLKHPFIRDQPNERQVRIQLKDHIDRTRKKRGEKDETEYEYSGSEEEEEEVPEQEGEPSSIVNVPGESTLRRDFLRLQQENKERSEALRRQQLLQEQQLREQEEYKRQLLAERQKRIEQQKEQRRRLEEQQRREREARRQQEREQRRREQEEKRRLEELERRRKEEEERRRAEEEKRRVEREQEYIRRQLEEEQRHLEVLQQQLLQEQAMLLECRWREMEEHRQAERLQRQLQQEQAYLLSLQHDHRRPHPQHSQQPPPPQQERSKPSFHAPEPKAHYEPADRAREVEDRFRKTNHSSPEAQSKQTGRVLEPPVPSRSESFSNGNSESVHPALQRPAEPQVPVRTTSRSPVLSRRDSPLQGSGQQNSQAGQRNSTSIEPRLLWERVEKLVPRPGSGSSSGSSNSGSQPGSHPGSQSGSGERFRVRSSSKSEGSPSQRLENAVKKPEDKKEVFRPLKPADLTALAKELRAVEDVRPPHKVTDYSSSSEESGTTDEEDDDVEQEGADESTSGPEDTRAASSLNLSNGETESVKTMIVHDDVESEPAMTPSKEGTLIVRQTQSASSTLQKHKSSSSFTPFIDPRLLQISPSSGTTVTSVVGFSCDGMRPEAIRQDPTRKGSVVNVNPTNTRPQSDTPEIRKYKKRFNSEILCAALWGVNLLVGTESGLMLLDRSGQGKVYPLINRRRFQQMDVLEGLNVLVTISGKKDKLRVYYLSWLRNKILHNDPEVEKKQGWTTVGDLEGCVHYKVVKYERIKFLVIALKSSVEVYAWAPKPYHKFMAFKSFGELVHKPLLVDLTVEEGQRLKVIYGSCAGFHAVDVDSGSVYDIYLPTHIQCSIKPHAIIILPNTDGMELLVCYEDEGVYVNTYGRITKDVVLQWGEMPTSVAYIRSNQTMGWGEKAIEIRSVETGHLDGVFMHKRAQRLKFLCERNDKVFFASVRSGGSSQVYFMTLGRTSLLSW

[9] = biological target: MAP kinase-interacting serine/threonine-protein kinase 2 (Homo sapiens, UniProt Q9HBH9); assay type: functional
[10] = biological target: Cell division cycle 7-related protein kinase (Homo sapiens, UniProt O00311); assay type: functional;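 note: value obtained from a kinome-wide kinase panel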
Cell division cycle 7-related protein kinase, sequence (O00311 whole entry): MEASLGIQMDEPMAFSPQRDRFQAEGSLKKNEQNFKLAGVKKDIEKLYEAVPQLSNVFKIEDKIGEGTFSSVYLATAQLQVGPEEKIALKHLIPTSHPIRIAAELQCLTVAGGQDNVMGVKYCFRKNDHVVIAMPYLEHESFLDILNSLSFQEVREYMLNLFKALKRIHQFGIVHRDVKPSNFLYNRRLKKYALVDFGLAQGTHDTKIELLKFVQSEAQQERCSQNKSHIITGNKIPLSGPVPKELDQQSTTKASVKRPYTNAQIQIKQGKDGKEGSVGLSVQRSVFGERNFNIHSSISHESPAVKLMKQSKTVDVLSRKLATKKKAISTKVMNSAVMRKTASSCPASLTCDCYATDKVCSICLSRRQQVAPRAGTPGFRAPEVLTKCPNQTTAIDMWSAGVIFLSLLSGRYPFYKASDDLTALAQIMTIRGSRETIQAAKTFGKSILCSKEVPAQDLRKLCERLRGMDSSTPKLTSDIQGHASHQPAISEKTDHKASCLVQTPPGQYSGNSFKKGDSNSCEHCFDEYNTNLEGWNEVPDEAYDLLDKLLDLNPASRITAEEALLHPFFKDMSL

[11] = biological target: cAMP-dependent protein kinase catalytic subunit alpha (Homo sapiens, UniProt P17612); assay type: functional
[12] = biological target: T2, Melanin-concentrating hormone receptor 1 (Homo sapiens, UniProt Q99705); test: Late-stage fluorescence-based counterscreen for antagonists of the G-protein coupled receptor 7 (GPR7): cell-based dose response assay to identify antagonists of the melanin-concentrating hormone receptor 1 (MCHR1) Set 6.; assay type: functional
T2 sequence (Q99705 whole entry): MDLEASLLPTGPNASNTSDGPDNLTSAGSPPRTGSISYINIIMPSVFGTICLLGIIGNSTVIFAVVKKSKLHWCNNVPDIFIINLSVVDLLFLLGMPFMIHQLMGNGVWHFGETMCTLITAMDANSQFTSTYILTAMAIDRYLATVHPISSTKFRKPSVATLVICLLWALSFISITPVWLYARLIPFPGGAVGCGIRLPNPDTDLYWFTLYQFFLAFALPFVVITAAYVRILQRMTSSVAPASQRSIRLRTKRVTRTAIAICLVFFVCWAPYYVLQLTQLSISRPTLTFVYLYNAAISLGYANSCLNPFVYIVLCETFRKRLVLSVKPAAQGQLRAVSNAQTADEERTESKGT

[13] = biological target: Neuropeptides B/W receptor type 1 (Homo sapiens, UniProt P48145); test: human NPBW1 receptor blockade, IC50 – cell-based, fluorescence, dose response, set 6, late-stage follow-up (AID 588583); assay type: functional
Neuropeptides B/W receptor type 1, sequence (P48145 whole entry): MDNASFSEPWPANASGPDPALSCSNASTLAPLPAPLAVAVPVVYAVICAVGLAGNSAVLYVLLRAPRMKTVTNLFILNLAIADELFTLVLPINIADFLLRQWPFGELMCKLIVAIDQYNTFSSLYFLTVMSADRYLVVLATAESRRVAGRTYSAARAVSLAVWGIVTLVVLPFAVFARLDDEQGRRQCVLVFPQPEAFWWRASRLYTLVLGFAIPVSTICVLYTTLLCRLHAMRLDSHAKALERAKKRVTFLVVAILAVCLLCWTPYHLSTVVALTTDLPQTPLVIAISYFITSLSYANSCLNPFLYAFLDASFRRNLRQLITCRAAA

[14] = biological target: T2, Melanin-concentrating hormone receptor 1; test: Late-stage fluorescence-based counterscreen for antagonists of the G-protein coupled receptor 7 (GPR7): cell-based dose response assay to identify antagonists of the melanin-concentrating hormone receptor 1 (MCHR1) Set 5.; assay type: functional

- AC50 [1]: 4240 nM (active)
- AC50 [2]: 1310 nM (active)
Compound: COC(=O)c1nnn(-c2nonc2N)c1CSc1nc2ccccc2s1

- Ki [3]: 631 nM (active)
- Ki [4]: 12.6 nM (active)
- Ki [5]: 200 nM (active)
- Ki [6]: 2000 nM (active)
- Ki [7]: 6310 nM (active)
- Ki [8]: 63.1 nM (active)
- Ki [9]: 398 nM (active)
- Ki [10]: 6.31 nM (active)
- Ki [11]: 6310 nM (active)
Compound: O=c1cc(-c2ccncc2)nc(NCc2cc(F)cc(F)c2)[nH]1

- IC50 [12]: 830 nM (active)
- IC50 [13]: 830 nM (active)
Compound: N#CC(c1ccc(Cl)cc1)c1c(Cl)cnn(Cc2cccc3ccccc23)c1=O (centres undefined)

- IC50 [14]: > 20000 nM (inactive)
Compound: COc1ccc(Oc2c(Cl)cnn(C3c4ccccc4CCc4ccccc43)c2=O)cc1
